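A five-concentration, 48-hour dose response in 96-well plates underlies each endpoint, interpolated linearly between surrounding concentrations. At the GI50, growth is halved.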 The source made the active and inactive calls. Rule as the data show it: active = GI50 up to about 1.1 µM and inactive = higher.
Assays:
Assay in all cases: DTP human tumour cell line panel, 48 h
[1] = test system: 786-0
[2] = test system: A498
[3] = test system: ACHN
[4] = test system: BT-549
[5] = test system: COLO 205
[6] = test system: HCT-15
[7] = test system: HOP-92
[8] = test system: K562
[9] = test system: MDA-MB-435
[10] = test system: MDA-N
[11] = test system: Malme-3M
[12] = test system: OVCAR-3
[13] = test system: PC-3
[14] = test system: RPMI-8226
[15] = test system: SF-539
[16] = test system: SK-MEL-28
[17] = test system: SK-MEL-5
[18] = test system: T47D
[19] = test system: TK-10
[20] = test system: UO-31

Compound | GI50 [1] | GI50 [2] | GI50 [3] | GI50 [4] | GI50 [5] | GI50 [6] [µM] | GI50 [7] | GI50 [8] | GI50 [9] | GI50 [10] | GI50 [11] | GI50 [12] | GI50 [13] | GI50 [14] | GI50 [15] | GI50 [16] | GI50 [17] | GI50 [18] | GI50 [19] | GI50 [20]
CN(C)c1ccc(C=c2c3ccccc3n3c2c2c([n+]3C)CCCC2)cc1 | 0.261 µM (active) | 0.247 µM (active) | 0.314 µM (active) | 0.186 µM (active) | 0.0301 µM (active) | 1.87 | 0.046 µM (active) | 0.023 µM (active) | 0.109 µM (active) | 0.1 µM (active) | 0.17 µM (active) | 0.152 µM (active) | 0.219 µM (active) | 0.0352 µM (active) | 0.165 µM (active) | 0.542 µM (active) | 0.0687 µM (active) | 0.0191 µM (active) | 0.207 µM (active) | 1.12 µM (inactive)
Nc1nc(Cl)cc(NCC2(CO)CC(O)C2)n1 (stereo not given) | > 100 µM (inactive) | > 100 µM (inactive) | > 100 µM (inactive) | > 100 µM (inactive) | > 100 µM (inactive) | > 100 | > 100 µM (inactive) | > 100 µM (inactive) | > 100 µM (inactive) | > 100 µM (inactive) | > 100 µM (inactive) | > 100 µM (inactive) | > 100 µM (inactive) | > 100 µM (inactive) | > 100 µM (inactive) | > 100 µM (inactive) | > 100 µM (inactive) | > 100 µM (inactive) | > 100 µM (inactive) | > 100 µM (inactive)
COc1ccc2nc(C)cc(NCCCCCCCCCNc3cc(C)nc4ccc(OC)cc34)c2c1 | 1.03 µM (active) | 13.7 µM (inactive) | 8.87 µM (inactive) | 8.95 µM (inactive) | 2.28 µM (inactive) | 2.3 | 1.24 µM (inactive) | 0.264 µM (active) | 1.58 µM (inactive) | 1.46 µM (inactive) | 9.27 µM (inactive) | 1.24 µM (inactive) | 1.02 µM (active) | 1.11 µM (active) | 1.27 µM (inactive) | 15 µM (inactive) | 1.71 µM (inactive) | 1.73 µM (inactive) | 4.66 µM (inactive) | 13.6 µM (inactive)
COc1ccccc1NC(=O)C(C#N)=C(SC)SC | > 100 µM (inactive) | > 100 µM (inactive) | > 100 µM (inactive) | > 100 µM (inactive) | > 100 µM (inactive) | > 100 | 32.3 µM (inactive) | > 100 µM (inactive) | > 100 µM (inactive) | > 100 µM (inactive) | > 100 µM (inactive) | > 100 µM (inactive) | > 100 µM (inactive) | > 100 µM (inactive) | > 100 µM (inactive) | > 100 µM (inactive) | > 100 µM (inactive) | 30.2 µM (inactive) | > 100 µM (inactive) | > 100 µM (inactive)
Nc1nc(S)nc2snnc12 | > 100 µM (inactive) | > 100 µM (inactive) | > 100 µM (inactive) | > 100 µM (inactive) | > 100 µM (inactive) | > 100 | > 100 µM (inactive) | > 100 µM (inactive) | > 100 µM (inactive) | > 100 µM (inactive) | > 100 µM (inactive) | > 100 µM (inactive) | > 100 µM (inactive) | > 100 µM (inactive) | > 100 µM (inactive) | > 100 µM (inactive) | > 100 µM (inactive) | > 100 µM (inactive) | > 100 µM (inactive) | > 100 µM (inactive)
CC(C)CCC/C(CBr)=C(\Cl)CCl | 1.85 µM (inactive) | 20.7 µM (inactive) | 11.2 µM (inactive) | 1.82 µM (inactive) | 1.83 µM (inactive) | 2.8 | 2.14 µM (inactive) | 0.104 µM (active) | 2.36 µM (inactive) | 1.83 µM (inactive) | 2.59 µM (inactive) | 2.53 µM (inactive) | 4.76 µM (inactive) | 0.948 µM (active) | 10.4 µM (inactive) | 2.07 µM (inactive) | 1.95 µM (inactive) | 1.17 µM (inactive) | 1.88 µM (inactive) | 3.27 µM (inactive)
Cn1c(N)c(/C=C/C(=O)Oc2ccccc2)c(=O)n(C)c1=O | 78.9 µM (inactive) | > 100 µM (inactive) | 50.7 µM (inactive) | > 100 µM (inactive) | > 100 µM (inactive) | > 100 | 22.3 µM (inactive) | > 100 µM (inactive) | > 100 µM (inactive) | > 100 µM (inactive) | > 100 µM (inactive) | > 100 µM (inactive) | > 100 µM (inactive) | > 100 µM (inactive) | 50.8 µM (inactive) | > 100 µM (inactive) | > 100 µM (inactive) | 85.3 µM (inactive) | > 100 µM (inactive) | 49.7 µM (inactive)
C/C1=C\CC[C@@]2(C)O[C@@H]2C[C@@H](C2(C)CO2)CC/C(C)=C/CC1 (stereo not given in full) | 16.8 µM (inactive) | > 100 µM (inactive) | 17.9 µM (inactive) | 21.2 µM (inactive) | 15.6 µM (inactive) | 10.3 | 33.7 µM (inactive) | 34.4 µM (inactive) | 20.6 µM (inactive) | 25.6 µM (inactive) | 15.3 µM (inactive) | 23.8 µM (inactive) | 22 µM (inactive) | 31 µM (inactive) | 21.7 µM (inactive) | 21.7 µM (inactive) | 21.7 µM (inactive) | 32.5 µM (inactive) | 15.4 µM (inactive) | 25.2 µM (inactive)
Cn1c2c(c3c(=O)[nH]ncc31)Cc1ccccc1-2 | 6.37 µM (inactive) | 6.62 µM (inactive) | 5.07 µM (inactive) | 18.3 µM (inactive) | 10.9 µM (inactive) | 11.1 | 25.2 µM (inactive) | 18.2 µM (inactive) | 14.3 µM (inactive) | 12.9 µM (inactive) | 16.3 µM (inactive) | 12.7 µM (inactive) | 21.5 µM (inactive) | 15.9 µM (inactive) | 19.2 µM (inactive) | 24.4 µM (inactive) | 12.2 µM (inactive) | 25.6 µM (inactive) | 5.81 µM (inactive) | 5.53 µM (inactive)
CC(=O)OCC(=O)O[C@@H]1[C@H]2[C@@H](OC(=O)c3ccccc3)[C@@H](C)C[C@]2(O)[C@H](OC(C)=O)[C@@]2(C)C(OC(C)=O)[C@]1(OC(C)=O)C[C@H]1C(=O)C(C)(C)C[C@@H]12 (stereo not given in full) | > 50 µM (inactive) | 29.1 µM (inactive) | > 45.3 µM (inactive) | > 35 µM (inactive) | 12.8 µM (inactive) | > 47.1 | > 31.7 µM (inactive) | 9.02 µM (inactive) | 26.2 µM (inactive) | 18.1 µM (inactive) | 35.9 µM (inactive) | > 46.6 µM (inactive) | > 47.9 µM (inactive) | 13.3 µM (inactive) | 34.5 µM (inactive) | > 50 µM (inactive) | 31 µM (inactive) | > 50 µM (inactive) | > 50 µM (inactive) | > 50 µM (inactive)
COC(=O)C1=C(C)NC(C)=C([N+](=O)[O-])C1c1cccc(N=O)c1 (stereo not given) | 14.2 µM (inactive) | 24.4 µM (inactive) | 12.3 µM (inactive) | 16.7 µM (inactive) | 15.7 µM (inactive) | 14.2 | 2.83 µM (inactive) | 4.47 µM (inactive) | 12.7 µM (inactive) | 10 µM (inactive) | 12.5 µM (inactive) | 15 µM (inactive) | 17.9 µM (inactive) | 4.29 µM (inactive) | 16.8 µM (inactive) | 17.9 µM (inactive) | 15.6 µM (inactive) | 12.1 µM (inactive) | 12.8 µM (inactive) | 12.1 µM (inactive)
CC(C)=CCNc1ncnc2c1ncn2CCC#N | > 100 µM (inactive) | > 100 µM (inactive) | > 100 µM (inactive) | > 100 µM (inactive) | > 100 µM (inactive) | > 100 | > 100 µM (inactive) | > 100 µM (inactive) | > 100 µM (inactive) | > 100 µM (inactive) | > 100 µM (inactive) | > 100 µM (inactive) | > 100 µM (inactive) | > 100 µM (inactive) | > 100 µM (inactive) | > 100 µM (inactive) | > 100 µM (inactive) | > 100 µM (inactive) | > 100 µM (inactive) | > 100 µM (inactive)
COc1cc(/C=C2\C(=O)N(c3cc(Cl)ccc3Cl)C(c3ccccc3)S2(=O)=O)cc(OC)c1OC (stereo not given) | > 100 µM (inactive) | > 100 µM (inactive) | > 100 µM (inactive) | 83.2 µM (inactive) | > 100 µM (inactive) | 39.4 | 45.1 µM (inactive) | 31 µM (inactive) | 27.7 µM (inactive) | 22.2 µM (inactive) | 42.9 µM (inactive) | 34.8 µM (inactive) | 55.8 µM (inactive) | 45.4 µM (inactive) | 90.6 µM (inactive) | 63.8 µM (inactive) | 57.4 µM (inactive) | 26.1 µM (inactive) | > 100 µM (inactive) | 46.8 µM (inactive)
COc1ccc(C(C)NNC(=O)c2cc[n+]([BH2-]C#N)cc2)c(OC)c1 (stereo not given) | > 100 µM (inactive) | > 100 µM (inactive) | > 100 µM (inactive) | > 100 µM (inactive) | > 100 µM (inactive) | > 100 | > 100 µM (inactive) | > 100 µM (inactive) | > 100 µM (inactive) | > 100 µM (inactive) | > 100 µM (inactive) | > 100 µM (inactive) | > 100 µM (inactive) | > 100 µM (inactive) | > 100 µM (inactive) | > 100 µM (inactive) | > 100 µM (inactive) | > 100 µM (inactive) | > 100 µM (inactive) | > 100 µM (inactive)

From ChEMBL document CHEMBL1201862, “PubChem BioAssay data set” (2004)
